Results reported in patent US20100178658A1, “SCREENING ASSAYS FOR INHIBITORS OF BETA AMYLOID PEPTIDE ION CHANNEL FORMATION” (The Regents of the University of Michigan, priority 2007, published 2010).
“Also recorded” adds a separate entry of the source.

Key:
Aβ fibrils = biological target: T1, Aβ fibrils (Homo sapiens, UniProt P05067); conditions: cited from earlier work; for Binding and coating of Aβ fibrils (inhibition of IgG-Aβ fibril interactions): ELISA with monoclonal anti-Aβ IgG clone 6E10, Inbar et al.
T1 construct: the Aβ fibrils are grown from synthetic Aβ (1-42) peptides by incubating the peptides (74 μM) in ultrapure water

[1] = biological target: T2, Aβ peptide (1-42) ion channels (Homo sapiens, UniProt P05067); test: Electrophysiological planar lipid bilayer assay for Aβ peptide ion channel activity (bilayer chambers, voltage clamp); assay type: biochemical; conditions: for Inhibition of Aβ pores / ion channel activity of Aβ: electrophysiological screening assay of FIGS. 3-5; for Inhibition of Aβ peptide ion channel formation (pore forming activity): 37 μM Aβ peptide, test compound in molar ratio 1:1, added at the same time as Aβ peptide, planar lipid bilayer; for Disruption of preformed Aβ ion channels: added after current activity was observed
T2 construct: purchased Innovagen, Lund, SE or Bachem Bioscience Inc., King of Prussia, Pa., USA
Source text: Ion channel measurements. Screening assays can be performed using single channel recordings in “voltage clamp mode” using Ag/AgCl electrodes (Warner Instruments) in each compartment of the bilayer chambers. Data acquisition and storage can be carried out using custom software in combination with either an EPC-7 patch clamp amplifier from List Medical Electronic (set at a gain of 10 mV pA-1 and a filter cutoff frequency of 3 kHz) or a Geneclamp 500 amplifier from Axon Instruments (with a CV-5B 100GU headstage, set at a gain of 100 mV pA-1 and filter cutoff frequency of 1 kHz). In some embodiments, patch clamp amplifiers, for example, the EPC-7 amplifier can be used for most folded bilayers and the Geneclamp 500 amplifier for most painted bilayers. The data acquisition boards for both amplifiers were set to a sampling frequency of 15 kHz. Current traces can be further filtered using a digital Gaussian low-pass filter with a cutoff frequency of 30 Hz. In some embodiments, the current traces used to generate data that can be recorded at applied potentials 50 mV and filtered at 10 Hz.
Analysis of the single channel current traces can be made by computing histograms of the currents from the original current-time traces with ClampFit 9.2 software from Axon Instruments. From these histograms, the main current values can be extracted by fitting a Gaussian function to the peaks in the histograms. Single channel conductances can refer to the main conductance state (i.e. to the dominant peaks in the current histograms).
The lipid mixture can be made from POPE:POPG (Avanti Polar Lipids) at 25 mg/ml (1:1) in Heptane. The pretreatment lipid solution can be POPE:POPG 20 mg/mL in Hexane. 2. The bilayer is formed in classic bilayer cups and chamber (Warner Instruments). This 2-part system consists of a black Delrin chamber and a cup of Delrin. Cups and chambers are designed such that addition of equal volumes to the cup and chamber (cis and trans sides) results in a balanced solution height, minimizing any pressure gradients across the bilayer membrane.
The bilayer was formed over a 250-μm hole in a partition separating two Delrin compartments, the so called “painting technique.” First, droplets of pretreated lipid solution were placed on both sides of the hole, using 100 μL-Hamilton syringe. Once the droplet of hexane evaporates, both chambers (cis and trans) were symmetrically filled with 900 μL of buffer solution, 100 mM KH2PO4/K2HPO4 pH 7.4, at room temperature.
When the bilayer set-up was already in place with Ag/AgCl electrodes in Faraday cage (a bilayer workstation which provides critical shielding of electromagnetic interference from outside sources and isolate vibration) the lipid solution (POPE:POPG in Heptane) can be painted directly over the hole by using a thin paintbrush. Blowing air underneath the hole using a Pasteur pipette to thin out the bilayer can be used until the appropriate capacitance (80-120 pF) is achieved. A voltage of ±100 mV was applied for at least 10 minutes to test stability of lipid bilayer.
Aβ(1-42) (commercially available from Innovagen, Lund, SE or Bachem Bioscience Inc., King of Prussia, Pa., USA) is initially dissolved in deionized water at 1 mg/ml (221.5 μM) and stored at −20° C. The stock solution can be aliquotted to sufficient amount for each time use (90 μL). After the stable bilayer is constituted, the Aβ(1-42) solution can be added to the trans side of the chamber to obtain a final concentration of 37 μM. The solution is mixed well in the chamber under stirring for 5 minutes.
Congo Red (Sigma) is dissolved in de-ionized (DI) water to achieve a concentration of 2.5 mg/ml (3.58 mM as a stock solution). (−)Nicotine hemisulfate (Sigma, St. Louis, Mo., USA) was diluted to 1.89 mM in DI water. Tannic acid (Riedel-de Haën, Seelze, Germany) is diluted to 20 mM in DI water.

T1 sequence (P05067 672-713 limits assumed): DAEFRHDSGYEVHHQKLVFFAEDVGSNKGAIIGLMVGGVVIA
T2 sequence (P05067 672-713 limits assumed): as above

Compound: O=S(=O)([O-])c1ccc(O)c2ccccc12.[Na+] [1-naphthol-4-sulfonate]
- Binding and coating of Aβ fibrils (inhibition of IgG-Aβ fibril interactions) (Aβ fibrils): do not interact with Aβ fibrils

Compound: Nc1c(/N=N/c2ccc(-c3ccc(/N=N/c4cc(S(=O)(=O)O)c5ccccc5c4N)cc3)cc2)cc(S(=O)(=O)O)c2ccccc12 [Congo Red]
- Inhibition of Aβ pores / ion channel activity of Aβ [1]: inhibit Aβ pores
- Binding to aggregated Aβ fibrils (Aβ fibrils): bind strongly

Compound: O=C(OC[C@H]1O[C@@H](OC(=O)c2cc(O)c(O)c(OC(=O)c3cc(O)c(O)c(O)c3)c2)[C@H](OC(=O)c2cc(O)c(O)c(OC(=O)c3cc(O)c(O)c(O)c3)c2)[C@@H](OC(=O)c2cc(O)c(O)c(OC(=O)c3cc(O)c(O)c(O)c3)c2)[C@@H]1OC(=O)c1cc(O)c(O)c(OC(=O)c2cc(O)c(O)c(O)c2)c1)c1cc(O)c(O)c(OC(=O)c2cc(O)c(O)c(O)c2)c1 [Tannic acid]
- Inhibition of Aβ peptide ion channel formation (pore forming activity) [1]: Inhibition of Aβ ion channel formation
- Inhibition of Aβ pores / ion channel activity of Aβ [1]: inhibit ion channel activity of Aβ
- Inhibition of Aβ pores / ion channel activity of Aβ ([1]; listed as tannic acid): inhibit Aβ pores
- Binding to aggregated Aβ fibrils (Aβ fibrils): bind strongly

Compound: Cc1ccc2c(c1)sc(-c1ccc(N(C)C)cc1)[n+]2C.[Cl-] [ThT, Thioflavin T]
- Binding and coating of Aβ fibrils (inhibition of IgG-Aβ fibril interactions) (Aβ fibrils): bind and coat Aβ fibrils

Compound: NCCc1ccc(O)c(O)c1 [dopamine]
- Inhibition of Aβ pores / ion channel activity of Aβ [1]: inhibit Aβ pores

Compound: CN1CCC[C@H]1c1cccnc1 [nicotine, (−)Nicotine hemisulfate]
- Inhibition of Aβ peptide ion channel formation (pore forming activity) [1]: eliminated ion channel pore forming activity
- Amount of nicotine needed: disruption of preformed channels versus inhibition of de novo formed channels ([1]; comparison of preformed and de novo formed Aβ ion channels): required more nicotine than the inhibition de novo formed ion channels
- Inhibition of Aβ pores / ion channel activity of Aβ [1]: inhibit Aβ pores
- Concentration dependence of disruption of Aβ peptide ion channel activity ([1]; nicotine added after observing Aβ current activity, 1:1, 1:2, 1:3 and 1:4 molar ratio): concentration-dependent disruption of Aβ peptide ion channel activity
- Disruption of preformed Aβ ion channels ([1]; nicotine at 2-fold molar excess with respect to Aβ peptide (1-42)): disrupted preformed ion channels
- Disruption of preformed Aβ ion channels ([1]; nicotine at 4-fold molar excess (4:1) with respect to Aβ peptide (1-42)): disrupted preformed ion channels almost completely; also recorded: disrupted preformed Aβ peptide ion channel activity almost completely
- Time to almost complete disruption of preformed ion channels ([1]; nicotine at 4-fold molar excess with respect to Aβ peptide (1-42)): ≤ 10 min

Compound: Diaminoacridine [DAA]
- Binding and coating of Aβ fibrils (inhibition of IgG-Aβ fibril interactions) (Aβ fibrils): bind and coat Aβ fibrils
